Reference: the NIST ThermoML archive (doi:10.1007/s10765-009-0610-6)
Numbers after ± are expanded uncertainties.

Conditions: Liquid; for mass density: 101.33 kPa, Vibrating tube method; for speed of sound: Pulse-echo method

**Q.** Which results are given for `BrCCCBr` [1,3-dibromopropane]?
**A.** mass density (292.55 K): 1980.22 ± 1.2 kg/m3; speed of sound (292.66 K, 100 kPa): 1078.9 ± 1.2 m/s; speed of sound (292.72 K, 15200 kPa): 1114.4 ± 2.3 m/s; speed of sound (292.78 K, 30400 kPa): 1148.6 ± 2.3 m/s; speed of sound (292.79 K, 45600 kPa): 1180.5 ± 2.3 m/s; speed of sound (292.8 K, 60810 kPa): 1210.8 ± 2.3 m/s; speed of sound (292.8 K, 91220 kPa): 1265.8 ± 2.4 m/s; speed of sound (292.82 K, 76010 kPa): 1239.1 ± 2.4 m/s; speed of sound (292.83 K, 101350 kPa): 1283 ± 2 m/s; mass density (297.98 K): 1970.22 ± 1.2 kg/m3; speed of sound (298.03 K, 76000 kPa): 1227.5 ± 2.4 m/s; speed of sound (298.04 K, 45600 kPa): 1167.8 ± 2.3 m/s; speed of sound (298.04 K, 60810 kPa): 1198.5 ± 2.4 m/s; speed of sound (298.04 K, 91210 kPa): 1255 ± 2.4 m/s; speed of sound (298.05 K, 30400 kPa): 1135.1 ± 2.3 m/s; speed of sound (298.07 K, 15210 kPa): 1100.1 ± 2.3 m/s; speed of sound (298.08 K, 101330 kPa): 1272.4 ± 2.4 m/s; speed of sound (298.61 K, 100 kPa): 1062.6 ± 1.2 m/s; speed of sound (302.95 K, 15210 kPa): 1087.4 ± 2.3 m/s; speed of sound (302.95 K, 30410 kPa): 1123 ± 2.3 m/s; speed of sound (302.95 K, 45600 kPa): 1156.1 ± 2.3 m/s; speed of sound (302.95 K, 60790 kPa): 1187.2 ± 2.3 m/s; speed of sound (302.95 K, 76010 kPa): 1216.7 ± 2.4 m/s; speed of sound (302.95 K, 91220 kPa): 1244.5 ± 2.4 m/s; speed of sound (302.95 K, 101350 kPa): 1262.3 ± 2.4 m/s; mass density (303.07 K): 1961.58 ± 1.2 kg/m3; speed of sound (303.58 K, 100 kPa): 1049 ± 1.2 m/s; mass density (308.02 K): 1952.84 ± 1.2 kg/m3; speed of sound (308.04 K, 76010 kPa): 1205.6 ± 2.4 m/s; speed of sound (308.04 K, 91210 kPa): 1233.7 ± 2.4 m/s; speed of sound (308.04 K, 101350 kPa): 1251.8 ± 2.4 m/s; speed of sound (308.05 K, 15210 kPa): 1074.3 ± 2.3 m/s; speed of sound (308.05 K, 30410 kPa): 1110.5 ± 2.3 m/s; speed of sound (308.05 K, 45620 kPa): 1144.2 ± 2.3 m/s; speed of sound (308.05 K, 60820 kPa): 1175.8 ± 2.3 m/s; speed of sound (308.67 K, 100 kPa): 1035.3 ± 1.2 m/s; speed of sound (313.41 K, 15230 kPa): 1060.7 ± 2.3 m/s; speed of sound (313.41 K, 30410 kPa): 1097.5 ± 2.3 m/s; speed of sound (313.41 K, 45610 kPa): 1131.7 ± 2.3 m/s; speed of sound (313.41 K, 60800 kPa): 1163.8 ± 2.4 m/s; speed of sound (313.41 K, 76010 kPa): 1194 ± 2.4 m/s; speed of sound (313.42 K, 91200 kPa): 1222.6 ± 2.4 m/s; speed of sound (313.42 K, 101330 kPa): 1240.8 ± 2.4 m/s; mass density (314.58 K): 1941.18 ± 1.2 kg/m3; speed of sound (314.7 K, 100 kPa): 1019 ± 1.2 m/s

**Q.** For `BrCCCCCBr` [1,5-dibromopentane], which speed of sound (292.38 K, 100 kPa) is on record?
**A.** 1149.5 ± 1.2 m/s

**Q.** What about the speed of sound (292.47 K, 91200 kPa) of the same compound?
**A.** 1354 ± 2.4 m/s

**Q.** And the speed of sound (292.48 K, 30400 kPa)?
**A.** 1226.2 ± 2.3 m/s

**Q.** What about the speed of sound (292.5 K, 45600 kPa) of the same compound?
**A.** 1260.8 ± 2.3 m/s

**Q.** And the speed of sound (292.52 K, 60800 kPa)?
**A.** 1293.4 ± 2.4 m/s

**Q.** And the speed of sound (292.53 K, 15210 kPa)?
**A.** 1189.1 ± 2.3 m/s

**Q.** What about the speed of sound (292.57 K, 101320 kPa) of the same compound?
**A.** 1372.2 ± 2.4 m/s

**Q.** What about the speed of sound (292.59 K, 76010 kPa) of the same compound?
**A.** 1324.4 ± 2.4 m/s

**Q.** What about the speed of sound (298 K, 60800 kPa) of the same compound?
**A.** 1281.2 ± 2.4 m/s

**Q.** And the speed of sound (298 K, 91200 kPa)?
**A.** 1342.4 ± 2.4 m/s

**Q.** And the speed of sound (298 K, 101330 kPa)?
**A.** 1361.6 ± 2.4 m/s

**Q.** What about the speed of sound (298.01 K, 45600 kPa) of the same compound?
**A.** 1248 ± 2.3 m/s

**Q.** What about the speed of sound (298.02 K, 30410 kPa) of the same compound?
**A.** 1212.7 ± 2.3 m/s

**Q.** What about the speed of sound (298.03 K, 15210 kPa) of the same compound?
**A.** 1174.8 ± 2.3 m/s

**Q.** And the speed of sound (298.05 K, 76000 kPa)?
**A.** 1312.6 ± 2.4 m/s

**Q.** What about the speed of sound (298.37 K, 100 kPa) of the same compound?
**A.** 1133 ± 1.2 m/s

**Q.** What about the speed of sound (303 K, 76000 kPa) of the same compound?
**A.** 1302 ± 2.4 m/s

**Q.** What about the speed of sound (303.01 K, 15200 kPa) of the same compound?
**A.** 1162.1 ± 2.3 m/s

**Q.** What about the speed of sound (303.01 K, 30400 kPa) of the same compound?
**A.** 1200.6 ± 2.3 m/s

**Q.** And the speed of sound (303.01 K, 60790 kPa)?
**A.** 1270 ± 2.4 m/s

**Q.** And the speed of sound (303.01 K, 91200 kPa)?
**A.** 1331.8 ± 2.4 m/s

**Q.** What about the speed of sound (303.01 K, 101340 kPa) of the same compound?
**A.** 1350.7 ± 2.4 m/s

**Q.** And the speed of sound (303.02 K, 45600 kPa)?
**A.** 1236.5 ± 2.3 m/s

**Q.** And the speed of sound (303.4 K, 100 kPa)?
**A.** 1119.3 ± 1.2 m/s

**Q.** What about the speed of sound (308.03 K, 15210 kPa) of the same compound?
**A.** 1148.7 ± 2.3 m/s

**Q.** And the speed of sound (308.03 K, 30410 kPa)?
**A.** 1187.7 ± 2.3 m/s

**Q.** What about the speed of sound (308.03 K, 45590 kPa) of the same compound?
**A.** 1224 ± 2.3 m/s

**Q.** What about the speed of sound (308.05 K, 101330 kPa) of the same compound?
**A.** 1340 ± 2.4 m/s

**Q.** What about the speed of sound (308.06 K, 60790 kPa) of the same compound?
**A.** 1257.9 ± 2.4 m/s

**Q.** And the speed of sound (308.06 K, 76000 kPa)?
**A.** 1290.1 ± 2.4 m/s

**Q.** What about the speed of sound (308.06 K, 91200 kPa) of the same compound?
**A.** 1320.5 ± 2.4 m/s

**Q.** What about the speed of sound (308.38 K, 100 kPa) of the same compound?
**A.** 1105.8 ± 1.2 m/s

**Q.** What about the speed of sound (313.14 K, 76030 kPa) of the same compound?
**A.** 1279.3 ± 2.4 m/s

**Q.** And the speed of sound (313.16 K, 91210 kPa)?
**A.** 1310.1 ± 2.4 m/s

**Q.** And the speed of sound (313.16 K, 101330 kPa)?
**A.** 1330 ± 2.4 m/s

**Q.** And the speed of sound (313.17 K, 45610 kPa)?
**A.** 1212.3 ± 2.3 m/s

**Q.** And the speed of sound (313.18 K, 60800 kPa)?
**A.** 1246.8 ± 2.4 m/s

**Q.** What about the speed of sound (313.2 K, 15210 kPa) of the same compound?
**A.** 1135.8 ± 2.3 m/s

**Q.** And the speed of sound (313.2 K, 30410 kPa)?
**A.** 1175.5 ± 2.3 m/s

**Q.** What about the speed of sound (314.36 K, 100 kPa) of the same compound?
**A.** 1089.7 ± 1.2 m/s
